Assay results published in PubChem BioAssay AID248 (DTP/NCI, 2004).
Several values for one entry are separate records, joined by “and”; a condition that tells them apart may be missing. Equal values may be shown once. Inconclusive results and toxic doses are left out. Rule as the data show it: active = T/C of 150% or more; inactive = T/C below 125%.

Test system: L1210 leukemia ip in BDF1 mice, survival T/C
Assay: NCI In Vivo Anticancer Drug Screen. Data for tumor model L1210 Leukemia (intraperitoneal) in B6D2F1 (BDF1) mice
Conditions: endpoint: mean survival time, higher = longer survival
How it was run: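 Value reflects the ratio of survival in compound-treated mice to survival in vehicle-treated controls, with both groups carrying the same transplanted tumor.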

[1] = dose: 100.0 mg/kg/injection, schedule: Q04DX003 (ip), vehicle: other
[2] = dose: 200.0 mg/kg/injection, schedule: Q04DX003 (ip), vehicle: other
[3] = dose: 400.0 mg/kg/injection, schedule: Q04DX003 (ip), vehicle: other
[4] = dose: 100.0 mg/kg/injection, schedule: Q04DX002 (ip), vehicle: Klucel (hydroxypropylcellulose) (HPC)
[5] = dose: 200.0 mg/kg/injection, schedule: Q04DX002 (ip), vehicle: Klucel (hydroxypropylcellulose) (HPC)
[6] = dose: 100.0 mg/kg/injection, schedule: Q01DX001 (ip), vehicle: carboxymethylcellulose (CMC)
[7] = dose: 200.0 mg/kg/injection, schedule: Q01DX001 (ip), vehicle: carboxymethylcellulose (CMC)
[8] = dose: 100.0 mg/kg/injection, schedule: Q01DX009 (ip), vehicle: Klucel (hydroxypropylcellulose) (HPC)
[9] = dose: 100.0 mg/kg/injection, schedule: Q04DX003 (ip), vehicle: saline
[10] = dose: 200.0 mg/kg/injection, schedule: Q01DX009 (ip), vehicle: Klucel (hydroxypropylcellulose) (HPC)
[11] = dose: 200.0 mg/kg/injection, schedule: Q04DX003 (ip), vehicle: saline
[12] = dose: 400.0 mg/kg/injection, schedule: Q01DX009 (ip), vehicle: Klucel (hydroxypropylcellulose) (HPC)
[13] = dose: 50.0 mg/kg/injection, schedule: Q01DX009 (ip), vehicle: saline with Tween-80
[14] = dose: 100.0 mg/kg/injection, schedule: Q01DX009 (ip), vehicle: saline with Tween-80
[15] = dose: 200.0 mg/kg/injection, schedule: Q01DX009 (ip), vehicle: saline with Tween-80
[16] = dose: 100.0 mg/kg/injection, schedule: Q04DX003 (ip), vehicle: Klucel (hydroxypropylcellulose) (HPC)
[17] = dose: 200.0 mg/kg/injection, schedule: Q04DX003 (ip), vehicle: Klucel (hydroxypropylcellulose) (HPC)
[18] = dose: 400.0 mg/kg/injection, schedule: Q04DX003 (ip), vehicle: Klucel (hydroxypropylcellulose) (HPC)

Measured: T/C

CCCCCCC(C)O[Si](C)Cc1ccccc1 (stereo not drawn)
inactive: [1] 95 % of control | [2] 97 % of control | [3] 94 % of control

O=C(OCCOc1ccc(Cl)cc1Cl)c1cc(I)cc(I)c1I
inactive: [4] 111 % of control | [5] 101 % of control | dose: 400.0 mg/kg/injection, schedule: Q04DX002 (ip), vehicle: Klucel (hydroxypropylcellulose) (HPC) 104 % of control

NC(=O)n1ncnc1N
inactive: dose: 50.0 mg/kg/injection, schedule: Q01DX001 (ip), vehicle: carboxymethylcellulose (CMC) 110 % of control | [6] 101 % of control | dose: 100.0 mg/kg/injection, schedule: Q04DX003 (ip), vehicle: saline with Tween-80 96 % of control | [7] 104 % of control | dose: 200.0 mg/kg/injection, schedule: Q04DX003 (ip), vehicle: saline with Tween-80 97 % of control | dose: 400.0 mg/kg/injection, schedule: Q01DX001 (ip), vehicle: carboxymethylcellulose (CMC) 104 % of control | dose: 400.0 mg/kg/injection, schedule: Q04DX003 (ip), vehicle: saline with Tween-80 105 % of control

CCC(OBr)C1COC(Nc2ccccc2)O1 (stereo not drawn)
inactive: [8] 96 % of control | [9] 95 % of control | [10] 96 % of control | [11] 105 % of control | [12] 103 % of control | dose: 400.0 mg/kg/injection, schedule: Q04DX003 (ip), vehicle: saline 101 % of control

CC1NCCNCCNCCNC(C)c2cccc1n2 (stereo not drawn)
inactive: dose: 25.0 mg/kg/injection, schedule: Q04DX002 (ip), vehicle: saline 90 % of control | dose: 50.0 mg/kg/injection, schedule: Q04DX002 (ip), vehicle: saline 107 % of control | dose: 100.0 mg/kg/injection, schedule: Q04DX002 (ip), vehicle: saline 89 % of control

CCCNC(=O)Oc1c(C)cccc1C
inactive: dose: 50.0 mg/kg/injection, schedule: Q01DX009 (ip), vehicle: carboxymethylcellulose (CMC) 105 % of control and 107 % of control | dose: 100.0 mg/kg/injection, schedule: Q01DX001 (ip), vehicle: other 95 % of control | dose: 100.0 mg/kg/injection, schedule: Q01DX009 (ip), vehicle: carboxymethylcellulose (CMC) 96 % of control | [4] 92 % of control | dose: 100.0 mg/kg/injection, schedule: Q04DX002 (ip), vehicle: carboxymethylcellulose (CMC) 103 % of control and 104 % of control | [1] 103 % of control | dose: 200.0 mg/kg/injection, schedule: Q01DX001 (ip), vehicle: other 96 % of control | dose: 200.0 mg/kg/injection, schedule: Q01DX009 (ip), vehicle: carboxymethylcellulose (CMC) 103 % of control | [5] 103 % of control | dose: 200.0 mg/kg/injection, schedule: Q04DX002 (ip), vehicle: carboxymethylcellulose (CMC) 97 % of control and 88 % of control | [2] 104 % of control | dose: 400.0 mg/kg/injection, schedule: Q01DX001 (ip), vehicle: other 102 % of control | [3] 109 % of control

O=C1C=CC(=O)N1c1ccc(Cl)cc1
inactive: dose: 10.0 mg/kg/injection, schedule: Q01DX009 (ip), vehicle: Klucel (hydroxypropylcellulose) (HPC) 100 % of control | dose: 10.0 mg/kg/injection, schedule: Q04DX003 (ip), vehicle: other 97 % of control | dose: 20.0 mg/kg/injection, schedule: Q01DX009 (ip), vehicle: Klucel (hydroxypropylcellulose) (HPC) 88 % of control | dose: 20.0 mg/kg/injection, schedule: Q04DX003 (ip), vehicle: other 95 % of control | dose: 40.0 mg/kg/injection, schedule: Q04DX003 (ip), vehicle: other 95 % of control

COc1nn(C)c(=O)c2ncccc12
inactive: dose: 15.0 mg/kg/injection, schedule: Q01DX001 (ip), vehicle: carboxymethylcellulose (CMC) 93 % of control | dose: 30.0 mg/kg/injection, schedule: Q01DX001 (ip), vehicle: carboxymethylcellulose (CMC) 92 % of control

CCCCN(C)N=Nc1ccccc1C(=O)OC
inactive: [6] 107 % of control | [7] 117 % of control

CCC1=C(C)C(C)OC(C)=C1C (stereo not drawn) (tested in a mixture with another compound)
inactive: dose: 100.0 mg/kg/injection, schedule: Q01DX001 (ip), vehicle: saline 93 % of control | dose: 200.0 mg/kg/injection, schedule: Q01DX001 (ip), vehicle: saline 90 % of control | dose: 400.0 mg/kg/injection, schedule: Q01DX001 (ip), vehicle: saline 93 % of control

CSC(=N)c1cccc(OCCCc2ccccc2)c1
inactive: dose: 25.0 mg/kg/injection, schedule: Q01DX009 (ip), vehicle: saline with Tween-80 92 % of control | [13] 92 % of control | [14] 101 % of control | [15] 93 % of control

CCOC(=O)COc1ccc(C=O)cc1
inactive: [8] 110 % of control | [16] 102 % of control | [10] 96 % of control | [17] 96 % of control | [12] 98 % of control | [18] 97 % of control

CN1CCN(C(=O)C2C(c3ccccc3)C2c2cccc(C(F)(F)F)c2)CC1 (stereo not drawn)
inactive: dose: 100.0 mg/kg/injection, schedule: Q04DX002 (ip), vehicle: saline with Tween-80 103 % of control | dose: 200.0 mg/kg/injection, schedule: Q04DX002 (ip), vehicle: saline with Tween-80 98 % of control | dose: 400.0 mg/kg/injection, schedule: Q04DX002 (ip), vehicle: saline with Tween-80 92 % of control

C=CCNC(=S)Nc1ccc(C)cc1
inactive: dose: 50.0 mg/kg/injection, schedule: Q01DX009 (ip), vehicle: Klucel (hydroxypropylcellulose) (HPC) 95 % of control | [8] 97 % of control | [16] 103 % of control | [10] 100 % of control | [17] 101 % of control | [18] 88 % of control

O=C(Oc1ccc([N+](=O)[O-])cc1)c1ccc(CBr)cc1
inactive: dose: 50.0 mg/kg/injection, schedule: Q01DX009 (ip), vehicle: saline 104 % of control | dose: 100.0 mg/kg/injection, schedule: Q01DX009 (ip), vehicle: saline 102 % of control | [9] 94 % of control | dose: 200.0 mg/kg/injection, schedule: Q01DX009 (ip), vehicle: saline 94 % of control | [11] 94 % of control

CCOC(=O)C(=Cc1ccccc1OC)C(=O)OCC
inactive: dose: 100.0 mg/kg/injection, schedule: Q01DX001 (ip), vehicle: Klucel (hydroxypropylcellulose) (HPC) 100 % of control | [16] 94 % of control | dose: 200.0 mg/kg/injection, schedule: Q01DX001 (ip), vehicle: Klucel (hydroxypropylcellulose) (HPC) 111 % of control | [17] 100 % of control | dose: 400.0 mg/kg/injection, schedule: Q01DX001 (ip), vehicle: Klucel (hydroxypropylcellulose) (HPC) 111 % of control | [18] 92 % of control

CCC#CC(=O)CC
inactive: dose: 7.5 mg/kg/injection, schedule: Q04DX003 (ip), vehicle: saline 94 % of control | dose: 15.0 mg/kg/injection, schedule: Q04DX003 (ip), vehicle: saline 94 % of control | dose: 30.0 mg/kg/injection, schedule: Q04DX003 (ip), vehicle: saline 95 % of control

Cc1cccc(C(C)(C)CO)c1
inactive: [13] 100 % of control | [14] 96 % of control | [15] 96 % of control
